Measured values as given in US12435044B2, “Pyridazinone herbicides and pyridazinone intermediates used to prepare a herbicide” (FMC Corporation, priority 2018, dated 2025).

Tests used:
Assay in all cases: Test H postemergence, mixtures of Cpd. No. 20 with atrazine or glyphosate
Assay type in all cases: in vivo
[1] = tested on: E. black nightshade (SOLPT; Solanum ptycanthum)
Source text: (§1) This test evaluated the effect of mixtures of Cpd. No. 20 with atrazine or glyphosate on several plant species. Seeds of plant species selected from corn (ZEAMD; Zea mays, cv. ‘Pioneer 1184’), soybean (GLXMA; Glycine max, cv. Pioneer 35T58), giant foxtail (SETFA; Setaria faberi), Surinamgrass (BRADC; Brachiaria decumbens), fall panicum (PANDI; Panicum dichotomiflorum), velvetleaf (ABUTH; Abutilon threophrasti), mare's tail (ERICA; Conyza canadensis), barnyardgrass (ECHCG; Echinochloa crus-galli), large crabgrass (DIGSA; Digitaria sanguinalis), palmer amaranth (AMAPA; Amaranthus palmeri), common waterhemp (AMATU; Amaranthus rudis), E. black nightshade (SOLPT; Solanum ptycanthum), and common ragweed (AMBEL; Ambrosia artemisiifolia) were planted in pots containing Redi-Earth® planting medium (Scotts Company, 14111 Scottslawn Road, Marysville, Ohio 43041) comprising spaghnum peat moss, vermiculite, wetting agent and starter nutrients and treated postemergence using test chemicals formulated in a non-phytotoxic solvent mixture which included a surfactant. Plants ranged in height from 2 to 10 cm and were in the one- to two-leaf stage for the postemergence treatment. Treated plants and untreated controls were maintained in a greenhouse for approximately 14 d, after which time all treated plants were compared to untreated controls and visually evaluated for injury. Plant response ratings, summarized in Tables H1 & H2, are based on a 0 to 100 scale where 0 is no effect and 100 is complete control. A dash (-) response means no test result. Test results are presented as a mean of 4 reps.

[2] = tested on: barnyardgrass (ECHCG; Echinochloa crus-galli)
Source text: as §1

[3] = tested on: corn (ZEAMD; Zea mays, cv. ‘Pioneer 1184’)
Source text: as §1

[4] = tested on: fall panicum (PANDI; Panicum dichotomiflorum)
Source text: as §1

[5] = tested on: mare's tail (ERICA; Conyza canadensis)
Source text: as §1

[6] = tested on: palmer amaranth (AMAPA; Amaranthus palmeri)
Source text: as §1

In the case of `Cc1ccc2ccc(C)c(-c3c(O)c(Cl)nn(C)c3=O)c2c1` [Cpd. No. 20, 6-chloro-4-(2,7-dimethyl-1-naphthalenyl)-5-hydroxy-2-methyl-3(2H)-pyridazinone], the “Observed result (plant response rating), SOLPT” value (“Observed result … SOLPT” for short) ([1]; applied alone at 31 g a.i./ha) is reported as 86, the “Observed result … SOLPT” value ([1]; applied alone at 62 g a.i./ha) is reported as 93 and the “Observed result … SOLPT” value ([1]; applied alone at 125 g a.i./ha) is reported as 95. The “Observed result (plant response rating), ECHCG” value (from here on “Observed result … ECHCG”) ([2]; applied alone at 31 g a.i./ha) was 100, the “Observed result … ECHCG” value ([2]; applied alone at 62 g a.i./ha) was 100 and the “Observed result … ECHCG” value ([2]; applied alone at 125 g a.i./ha) was 100. The “Observed result (plant response rating), ZEAMD” value (from here on “Observed result … ZEAMD”) ([3]; applied alone at 31 g a.i./ha) was 0, the “Observed result … ZEAMD” value ([3]; applied alone at 62 g a.i./ha) was 0 and the “Observed result … ZEAMD” value ([3]; applied alone at 125 g a.i./ha) was 0. For the same compound, the “Observed result (plant response rating), PANDI” value (from here on “Observed result … PANDI”) ([4]; applied alone at 31 g a.i./ha) was 73, the “Observed result … PANDI” value ([4]; applied alone at 62 g a.i./ha) was 84 and the “Observed result … PANDI” value ([4]; applied alone at 125 g a.i./ha) was 89. The “Observed result (plant response rating), ERICA” value (from here on “Observed result … ERICA”) ([5]; applied alone at 31 g a.i./ha) was 85, the “Observed result … ERICA” value ([5]; applied alone at 62 g a.i./ha) was 85 and the “Observed result … ERICA” value ([5]; applied alone at 125 g a.i./ha) was 88. The “Observed result (plant response rating), AMAPA” value (from here on “Observed result … AMAPA”) ([6]; applied alone at 31 g a.i./ha) was 10, the “Observed result … AMAPA” value ([6]; applied alone at 62 g a.i./ha) was 36 and the “Observed result … AMAPA” value ([6]; applied alone at 125 g a.i./ha) was 54.
